Publication PMC8151276, “An Integrated Approach toward NanoBRET Tracers for Analysis of GPCR Ligand Engagement” (Molecules, 2021)

What was measured:
Type in all cases: binding
P2RY11 = molecular target: T1, P2RY11 (Homo sapiens, UniProt Q96G91); test: NanoBRET screen HiBiT-P2RY11 in HEK293; details: P2RY11
T1 construct: purchased Promega (in-house HiBiT-GPCR construct library, NanoBRET)
T1 sequence (Q96G91 1-374): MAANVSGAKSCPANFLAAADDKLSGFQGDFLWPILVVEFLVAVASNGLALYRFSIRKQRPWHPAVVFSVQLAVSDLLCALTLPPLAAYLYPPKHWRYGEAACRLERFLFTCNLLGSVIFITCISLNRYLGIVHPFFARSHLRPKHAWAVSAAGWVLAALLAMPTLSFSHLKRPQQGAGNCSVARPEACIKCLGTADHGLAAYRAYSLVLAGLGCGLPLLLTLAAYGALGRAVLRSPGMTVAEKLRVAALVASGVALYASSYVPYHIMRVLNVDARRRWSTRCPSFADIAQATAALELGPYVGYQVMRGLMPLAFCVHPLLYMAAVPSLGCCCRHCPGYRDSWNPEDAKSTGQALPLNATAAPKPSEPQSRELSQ
Experimental: (§1) Each tracer candidate was screened across the entire library of HiBiT-GPCR constructs using NanoBRET as the detection modality. As depicted in Figure 4A, the specificity of interactions was evaluated through decrease in BRET due to competitive displacement of a bound tracer by excess parental compound. Each tracer was analyzed for binding to each HiBiT-GPCR fusion in the absence and in the presence of competing parental compound. Briefly, HEK293 cells were transfected with HiBiT-GPCR constructs diluted into promoterless DNA to reduce expression and maximize translocation to the cell surface. Each tracer candidate was then screened at concentrations of 1 μM and 0.1 μM across cells expressing these fusions. Cells were treated for 1.5 h with tracer either alone or in the presence of 20 μM competing parental compound (i.e., control). BRET was measured upon addition of purified LgBiT and subsequent complementation with HiBiT genetically fused to a GPCR. The specificity of interactions was assessed through a decrease in BRET signal due to competitive displacement of the bound tracer. To further gauge the robustness of these interactions, the fold response over the control (i.e., BRETtracer/BRETcontrol) was calculated. We chose a 1.5-fold response, which translates to ≥7-fold signal over noise as the minimal threshold required to score an interaction as positive. […]. Below we highlight the screening results obtained for our exemplary fluorescent tracers based on Clozapine, Amitriptyline and AZD1283.
(§2) HiBiT-GPCR DNA constructs were diluted in 10 mM Tris pH 8 to a final concentration of 0.01 μg/μL, arrayed in 96-well plates and stored at −20 °C. For transfection, HEK293 cells were suspended in Opti-MEM (without phenol red) supplemented with 2% fetal bovine serum (Seradigm) and 100 units/mL penicillin–streptomycin (Gibco) at a final concentration of 220,000 cells/mL and dispensed into white 96-well plates at 90 μL/well. Subsequent transfections and screens were carried using an Agilent Bravo Automated Liquid Handling Platform. First, the 96-well HiBiT DNA arrays were diluted 25-fold in Opti-MEM (without serum or phenol red) to a final concentration of 0.0004 μg/μL and 20 μL of the diluted DNAs were transferred into new 96-well plates. Next, promoterless carrier DNA (1 μg/μL) was diluted 25-fold (0.04 μg/μL) and then dispensed into the diluted arrays at 20 μL/well. Following brief mixing, Viafect transfection reagent (Promega) diluted 16-fold into Opti-MEM was dispensed into the plates at 40 μL/well. After mixing by pipetting, plates were incubated for 10 min on the pipetting station deck. The DNA-transfection reagent complexes were then added to plates containing cells. To facilitate the screen, 10 μL of DNA-transfection reagent complexes were added in duplicates to the top 4 and bottom 4 rows, resulting in two identical 48-well arrays per plate. Plates with transfected cells were incubated for 18–20 h at 37 °C/5% CO2. A screen of each tracer across the entire library using two different concentrations requires duplicate plates of transfected cells. Depending on the number of tracers being screened, transfections can be scaled up using the same ratios. The next day, for each tracer, four 20× screening solutions in tracer dilution buffer (Promega) were prepared: two duplicates at final concentration of 20 μM and two duplicates at a final concentration of 2 μM. A competing unmodified compound was added to one of each duplicate at a final concentration of 400 μM. The four resulting solutions were diluted 4-fold in Opti-MEM without serum or phenol red to generate 5× solutions (5 µM and 0.5 µM tracer +/− 100 μM competing compound). To screen the library, a BioTek MultiFlo FX liquid dispenser was used to dispense 22.5 µL of tracer solution to the top 4 rows and 22.5 µL tracer + competing compound solution to the 4 bottom rows. Plates were briefly mixed on an orbital shaker and incubated for 1.5 h at room temperature. […]

FPR3 = molecular target: T2, FPR3 (Homo sapiens, UniProt P25089); test: NanoBRET screen HiBiT-FPR3 in HEK293; details: FPR3
T2 construct: purchased Promega (in-house HiBiT-GPCR construct library, NanoBRET)
T2 sequence (P25089 1-353): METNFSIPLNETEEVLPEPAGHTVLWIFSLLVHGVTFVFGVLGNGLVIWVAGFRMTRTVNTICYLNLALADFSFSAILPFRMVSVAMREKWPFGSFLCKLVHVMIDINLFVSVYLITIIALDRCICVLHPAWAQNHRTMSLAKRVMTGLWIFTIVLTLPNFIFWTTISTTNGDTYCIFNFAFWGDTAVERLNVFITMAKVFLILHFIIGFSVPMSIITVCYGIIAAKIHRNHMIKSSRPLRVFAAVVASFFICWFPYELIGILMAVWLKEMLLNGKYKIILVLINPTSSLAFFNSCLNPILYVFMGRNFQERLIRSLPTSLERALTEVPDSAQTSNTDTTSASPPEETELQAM
Experimental: as §1, §2

DRD5 = molecular target: T3, DRD5 (Homo sapiens, UniProt P21918); test: NanoBRET screen HiBiT-DRD5 in HEK293; details: DRD5
T3 construct: purchased Promega (in-house HiBiT-GPCR construct library, NanoBRET)
T3 sequence (P21918 whole entry): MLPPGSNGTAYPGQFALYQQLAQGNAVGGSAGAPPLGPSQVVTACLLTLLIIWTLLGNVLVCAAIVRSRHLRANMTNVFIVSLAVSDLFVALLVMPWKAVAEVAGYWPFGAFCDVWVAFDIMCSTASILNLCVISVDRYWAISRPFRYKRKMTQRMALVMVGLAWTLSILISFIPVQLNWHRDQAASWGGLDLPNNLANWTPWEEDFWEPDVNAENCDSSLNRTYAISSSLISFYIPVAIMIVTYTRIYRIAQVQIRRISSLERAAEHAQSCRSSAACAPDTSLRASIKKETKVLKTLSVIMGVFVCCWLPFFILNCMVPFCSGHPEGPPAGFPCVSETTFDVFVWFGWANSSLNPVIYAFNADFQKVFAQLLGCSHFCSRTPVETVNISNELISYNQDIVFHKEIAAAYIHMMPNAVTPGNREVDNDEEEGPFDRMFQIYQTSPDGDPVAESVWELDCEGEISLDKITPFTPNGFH
Experimental: as §1, §2

SSTR2 = molecular target: T4, SSTR2 (Homo sapiens, UniProt P30874); test: NanoBRET screen HiBiT-SSTR2 in HEK293; details: SSTR2
T4 construct: purchased Promega (in-house HiBiT-GPCR construct library, NanoBRET)
T4 sequence (P30874 whole entry): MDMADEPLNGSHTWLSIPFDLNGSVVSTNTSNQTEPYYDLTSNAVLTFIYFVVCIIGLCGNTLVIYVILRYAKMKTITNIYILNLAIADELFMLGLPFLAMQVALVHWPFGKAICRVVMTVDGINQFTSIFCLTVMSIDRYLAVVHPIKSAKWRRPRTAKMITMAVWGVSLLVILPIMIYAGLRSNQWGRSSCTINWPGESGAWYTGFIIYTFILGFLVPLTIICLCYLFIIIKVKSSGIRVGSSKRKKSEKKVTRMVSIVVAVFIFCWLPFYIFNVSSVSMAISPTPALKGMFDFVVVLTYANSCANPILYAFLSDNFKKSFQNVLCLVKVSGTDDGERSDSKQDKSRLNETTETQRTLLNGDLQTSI
Experimental: as §1, §2

FZD8 = molecular target: T5, FZD8 (Homo sapiens, UniProt Q9H461); test: NanoBRET screen HiBiT-FZD8 in HEK293; details: FZD8
T5 construct: purchased Promega (in-house HiBiT-GPCR construct library, NanoBRET)
T5 sequence (Q9H461 28-694): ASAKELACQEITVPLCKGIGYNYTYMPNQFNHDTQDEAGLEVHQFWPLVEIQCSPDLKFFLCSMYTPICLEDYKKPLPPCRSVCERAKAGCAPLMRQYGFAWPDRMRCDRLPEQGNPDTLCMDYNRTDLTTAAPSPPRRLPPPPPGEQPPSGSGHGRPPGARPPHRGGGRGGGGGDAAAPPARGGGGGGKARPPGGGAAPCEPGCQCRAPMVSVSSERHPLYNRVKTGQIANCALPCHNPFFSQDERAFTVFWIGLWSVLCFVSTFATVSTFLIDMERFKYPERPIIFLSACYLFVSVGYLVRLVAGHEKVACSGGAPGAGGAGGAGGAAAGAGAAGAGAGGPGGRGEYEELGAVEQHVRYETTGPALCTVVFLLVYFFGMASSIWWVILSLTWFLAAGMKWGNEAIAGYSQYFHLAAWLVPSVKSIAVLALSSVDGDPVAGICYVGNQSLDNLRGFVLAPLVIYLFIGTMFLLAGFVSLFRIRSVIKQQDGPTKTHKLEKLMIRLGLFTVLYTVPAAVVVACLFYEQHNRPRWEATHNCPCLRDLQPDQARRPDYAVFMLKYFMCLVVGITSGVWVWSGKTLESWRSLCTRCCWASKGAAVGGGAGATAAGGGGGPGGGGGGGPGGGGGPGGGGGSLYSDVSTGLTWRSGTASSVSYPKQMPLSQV
Experimental: as §1, §2

Q: What does the source list for `CN1CCN(C2=Nc3cc(Cl)ccc3Nc3ccc(CNC(=O)CCOCCOCCOCCOCCNC(=O)CCc4ccc5n4[B-](F)(F)[N+]4=C(c6ccc[nH]6)C=CC4=C5)cc32)CC1` [Clozapine-b-2-NB590]?
A: NanoBRET Fold Response (P2RY11; 0.1μM tracer): 1.04; NanoBRET Fold Response (P2RY11; 1μM tracer): 0.98; NanoBRET Fold Response (FPR3; 0.1μM tracer): 1.06; NanoBRET Fold Response (FPR3; 1μM tracer): 1.23; NanoBRET Fold Response (DRD5; 0.1μM tracer): 1.01; NanoBRET Fold Response (DRD5; 1μM tracer): 1.83; NanoBRET Fold Response (SSTR2; 0.1μM tracer): 1.03; NanoBRET Fold Response (SSTR2; 1μM tracer): 1.01; NanoBRET Fold Response (FZD8; 0.1μM tracer): 1.00; NanoBRET Fold Response (FZD8; 1μM tracer): 1.02
